Test results published in patent publication US20240287066A1, “Crystalline Form of Sotorasib” (Sandoz AG, priority 2021, published 2024).
Where two headings read alike, the source gives them in different places. Each block holds one compound with its values, some of them ahead of it.

Tests used:
[1] = cited from earlier work; for Mass increase from 0-90% RH at 25° C.: GMS, data from paragraph [0334] on page 46 of WO 2020/236947 A1; for hygroscopic behaviour (in words): GMS data of WO 2020/236947 A1, 0-90% RH, 25° C.
[2] = Powder dissolution in acetate buffer pH 4.5 and phosphate buffer pH 6.8; assay type: physicochemical; conditions: for phase change by PXRD during the dissolution experiments: acetate buffer pH 4.5 and phosphate buffer pH 6.8, 37° C., up to 24 hours; for solubility compared to crystalline Form I (in words): 15 minutes to 24 hours
Method: Powder dissolution experiments were carried out at a temperature of 37° C. in acetate buffer pH 4.5 and phosphate buffer pH 6.8 for the crystalline Form I of sotorasib disclosed in WO 2020/236947 A1 and the crystalline Form A of sotorasib of the present invention. Particle sizes of both forms were kept as similar as possible to allow for proper comparison. The respective concentrations were determined at a wavelength of 293 nm in case of the acetate buffer and at 354 nm in case of the phosphate buffer.

[3] = Stress stability (temperature and humidity stress, PXRD read-out); assay type: physicochemical; conditions: for solid form by PXRD after stress storage: 30 weeks, open stored in glass vials
Source text: Sotorasib Form A of the present invention was subjected to various temperature and humidity stress conditions for 30 weeks as outlined in Table 3 below. The samples were open stored in glass vials.

[4] = Gravimetric moisture sorption (GMS) of sotorasib Form A; assay type: physicochemical
Method: Gravimetric moisture sorption was performed with an SPSx-1μ moisture sorption analyzer (ProUmid, Ulm). The measurement cycle was started at ambient relative humidity (RH) of 40%. RH was then decreased to 5% in 5% steps, followed by a further decrease to 3% and to 0%. […] Finally, RH was increased to ambient relative humidity of 40% in 5% steps. The time per step was set to a minimum of 2 hours and a maximum of 6 hours. If an equilibrium condition with a constant mass of ±0.01% within 1 hour was reached before the maximum time for all examined samples the sequential humidity step was applied before the maximum time of 6 hours. If no equilibrium was achieved the consecutive humidity step was applied after the maximum time of 6 hours. The temperature was (25±0.1)° C.

phase change by PXRD during the dissolution experiments [2]: no phase changes occurred
Structure (SMILES): C=CC(=O)N1CCN(c2nc(=O)n(-c3c(C)ccnc3C(C)C)c3nc(-c4c(O)cccc4F)c(F)cc23)[C@@H](C)C1 [Form I of WO 2020/236947 A1, 6-fluoro-7-(2-fluoro-6-hydroxyphenyl)-1-(4-methyl-2-(2-propanyl)-3-pyridinyl)-4-((2S)-2-methyl-4-(2-propenoyl)-1-piperazinyl)pyrido[2,3-d]pyrimidin-2(1H)-one]
Mass increase from 0-90% RH at 25° C. [1]: +0.5-1.0% ^
Mass increase from 0-90% RH at 25° C. ([1]; listed as Form I): 0.5-1.0%

Structure (SMILES): C=CC(=O)N1CCN(c2nc(=O)n(-c3c(C)ccnc3C(C)C)c3nc(-c4c(O)cccc4F)c(F)cc23)[C@@H](C)C1 [Form II of WO 2020/236947 A1, 6-fluoro-7-(2-fluoro-6-hydroxyphenyl)-1-(4-methyl-2-(2-propanyl)-3-pyridinyl)-4-((2S)-2-methyl-4-(2-propenoyl)-1-piperazinyl)pyrido[2,3-d]pyrimidin-2(1H)-one]
hygroscopic behaviour (in words) [1]: hygroscopic
Mass increase from 0-90% RH at 25° C. [1]: +2-2.5%^

Structure (SMILES): C=CC(=O)N1CCN(c2nc(=O)n(-c3c(C)ccnc3C(C)C)c3nc(-c4c(O)cccc4F)c(F)cc23)[C@@H](C)C1 [Form III of WO 2020/236947 A1, 6-fluoro-7-(2-fluoro-6-hydroxyphenyl)-1-(4-methyl-2-(2-propanyl)-3-pyridinyl)-4-((2S)-2-methyl-4-(2-propenoyl)-1-piperazinyl)pyrido[2,3-d]pyrimidin-2(1H)-one]
hygroscopic behaviour (in words) [1]: hygroscopic
Mass increase from 0-90% RH at 25° C. [1]: +7.0%

solid form by PXRD after stress storage ([3]; 25° C./60% RH): Form A
solid form by PXRD after stress storage ([3]; 30° C./65% RH): Form A
solid form by PXRD after stress storage ([3]; 40° C./75% RH): Form A
solid form by PXRD after stress storage ([3]; RT/0% RH): Form A
solid form by PXRD after stress storage ([3]; RT/97% RH): Form A
phase change by PXRD at any stress condition ([3]; all temperature and humidity stress conditions of Table 3, 30 weeks): no phase change occurred
hygroscopic behaviour (in words) ([4]; GMS, 0-90% RH, 25° C.): slightly hygroscopic
mass difference in the sorption cycle between 0 and 90% RH ([4]; GMS, 0-90% RH, (25±0.1)° C.): about 0.4 w-%
Mass increase from 0-90% RH at 25° C. ([4]; GMS, data from FIG. 4 of present invention): +0.4%
PXRD of the sample after the GMS experiment ([4]; after sorption/desorption cycle 0-90% RH, 25° C.): same PXRD
solubility compared to crystalline Form I (in words) ([2]; acetate buffer pH 4.5, 37° C., FIG. 5): significantly increased solubility
equilibrium solubility after 24 hours compared to crystalline Form I ([2]; acetate buffer pH 4.5, 37° C.): about 3 fold
phase change by PXRD during the dissolution experiments [2]: no phase changes occurred
solubility compared to crystalline Form I (in words) ([2]; phosphate buffer pH 6.8, 37° C., FIG. 6): significantly increased solubility
equilibrium solubility after 24 hours compared to crystalline Form I ([2]; phosphate buffer pH 6.8, 37° C.): about 2 fold
Structure (SMILES): C=CC(=O)N1CCN(c2nc(=O)n(-c3c(C)ccnc3C(C)C)c3nc(-c4c(O)cccc4F)c(F)cc23)[C@@H](C)C1 [Sotorasib Form A, 6-fluoro-7-(2-fluoro-6-hydroxyphenyl)-1-(4-methyl-2-(2-propanyl)-3-pyridinyl)-4-((2S)-2-methyl-4-(2-propenoyl)-1-piperazinyl)pyrido[2,3-d]pyrimidin-2(1H)-one]
